Measurements as given in paper PMC4719150 (Biochemistry, 2015).
Where two headings read alike, the source gives them in different places. Numbered stars: 1 amine (or outer) side, 2 acyl side, 3 side chain; on linkers, the order of the positions; unused ones are H or OH. Bridge positions count the residues as written; N and C are the ends. Square brackets hold non-standard residues; d marks the D form. Peptide text beside a SMILES is read from it. I, II: the chains in the order shown. Actinocin(9to1) = Cc1c2oc3c(C)ccc(C(=O)[*:1])c3nc-2c(C(=O)[*:2])c(N)c1=O; NMeV = CN[C@H](C(=O)O)C(C)C; Sar = CNCC(=O)O

Tests used:
BEAS-2B cells = conditions: uninfected BEAS-2B cells, highest concentration assessed 10 μM, tox = less than 50% cell viability after 44 hours at ≤10 μM; for CC50: read-out: CC50 (PrestoBlue cell viability)
recIAV WSN-NanoLuc [1] = conditions: for EC50: read-out: EC50 IAV WSN-nanoLuc
[2] = tested on: recRSV A2-L19FD489E-fireSMASh; conditions: for EC50: read-out: EC50 RSV A2-L19FD489E-fireSMASh
recIAV WSN-NanoLuc [3] = test: microbe, parasite or virus in culture; assay type: cell-based; conditions: Influenza A virus, BEAS-2B, 40 h, read-out: % Inhibition (anti-IAV)
recIAV WSN-NanoLuc [4] = test: microbe, parasite or virus in culture; conditions: Influenza A virus, BEAS-2B, read-out: EC50 IAV WSN-nanoLuc
in vitro = conditions: human
recRSV A2-L19F-renilla = test: microbe, parasite or virus in culture; assay type: cell-based; conditions: human respiratory syncytial virus, BEAS-2B, read-out: EC50 RSV A2-L19F-renilla
[5] = tested on: recRSV-L19FD489E-fireSMASh; test: Peak progeny virus titers after incubation with ASV; assay type: cell-based, respiratory syncytial virus; conditions: 3 μM ASV versus vehicle
[6] = tested on: fireSMASh (firefly luciferase fused to SMASh tag); test: Firefly luciferase activity after virus growth in the presence of ASV; assay type: cell-based; conditions: growth of recRSV-L19FD489E-fireSMASh in the presence of 3 μM ASV; 44 hours post-infection

CCN(CC)CCNC(=O)c1c(C)[nH]c(/C=C2\C(=O)Nc3ccc(F)cc32)c1C [Sunitinib]
CC50 (PrestoBlue cell viability) (BEAS-2B cells): tox^d

O=C1C(=Cc2ccccc2)C[C@@]2(O)[C@H]3Cc4ccc(O)c5c4[C@@]2(CCN3CC2CC2)[C@H]1O5 [BNTX-7]
EC50 IAV WSN-nanoLuc (recIAV WSN-NanoLuc [1]): inactive^e | effect on IAV reporter strain (recIAV WSN-NanoLuc [1]): unaffected | CC50 (BEAS-2B cells): > 10 µM | SI RSV [CC50/EC50] [2]: SIRSV >4 | EC50 [2]: 2.5 µM

C[n+]1cc2c3c(ccc2c2ccc4cc5c(cc4c21)OCO5)OCO3 [Sanguinarine]
CC50 (PrestoBlue cell viability) (BEAS-2B cells): tox^d

CC[C@H]1CN2CCc3cc(OC)c(OC)cc3[C@@H]2C[C@@H]1C[C@H]1NCCc2cc(OC)c(OC)cc21 [Emetine]
CC50 (PrestoBlue cell viability) (BEAS-2B cells): tox^d

Cc1nc2ccc(CN(C)c3ccc(C(=O)N[C@@H](CCC(=O)O)C(=O)O)s3)cc2c(=O)[nH]1 [Raltitrexed]
inhibition at 5 µM (recIAV WSN-NanoLuc [3]): 60 ± 6.5%

CC(C)[C@]12O[C@H]1[C@@H]1O[C@]13[C@]1(O[C@H]1C[C@H]1C4=C(CC[C@@]13C)C(=O)OC4)[C@@H]2O [Triptolide]
inhibition at 5 µM (recIAV WSN-NanoLuc [3]): 103 ± 1.2% | EC50 (recIAV WSN-NanoLuc [4]): 0.15 µM | CC50 (in vitro): 0.3 µM | EC50 (recRSV A2-L19F-renilla): 0.6 µM | SI (CC50/EC50) value at dose-response testing (recIAV WSN-NanoLuc [1]): below two

O=[N+]([O-])c1ccc2c(c1)S(=O)(=O)C=C2 [Stattic]
SI IAV [CC50/EC50] (recIAV WSN-NanoLuc [1]): SIIAV 3 | EC50 (recIAV WSN-NanoLuc [1]): 3.3 µM | CC50 (BEAS-2B cells): 10 µM | EC50 [2]: 5.9 µM

Cc1c(-c2ccc(-c3ccccc3F)cc2)nc2ccc(F)cc2c1C(=O)O [Brequinar]
EC50 (recIAV WSN-NanoLuc [4]): 2.6 µM | CC50 (in vitro): > 10 µM | EC50 (recRSV A2-L19F-renilla): 1.8 µM | SI IAV [CC50/EC50] (recIAV WSN-NanoLuc [1]): SIIAV >3.8 SIRSV >6.3 conf. broad spectrum [81], [82] | SI RSV [CC50/EC50] [2]: SIIAV >3.8 SIRSV >6.3 conf. broad spectrum [81], [82]

CNc1ccc2oc(C[C@H]3O[C@@]4(CC[C@H]3C)O[C@H]([C@H](C)C(=O)c3ccc[nH]3)[C@H](C)C[C@H]4C)nc2c1C(=O)O [Calcimycin]
CC50 (PrestoBlue cell viability) (BEAS-2B cells): tox^d

CN(CCOc1ccc(CC2SC(=O)NC2=O)cc1)c1ccccn1 (centres unmarked) [Rosiglitazone]
inhibition at 5 µM (recIAV WSN-NanoLuc [3]): 35 ± 5%

Nc1nc(N)c2nc(CNc3ccc(C(=O)N[C@@H](CCC(=O)O)C(=O)O)cc3)cnc2n1 [Aminopterin]
EC50 (recIAV WSN-NanoLuc [4]): 0.09 µM | CC50 (in vitro): 10 µM | EC50 (recRSV A2-L19F-renilla): 0.05 µM | SI IAV [CC50/EC50] (recIAV WSN-NanoLuc [1]): SIIAV 111 SIRSV 143 conf. broad spectrum [79], [80] | SI RSV [CC50/EC50] [2]: SIIAV 111 SIRSV 143 conf. broad spectrum [79], [80]

CC(=O)[C@]1(O)Cc2c(O)c3c(c(O)c2[C@@H](O[C@H]2C[C@H](N)[C@H](O)[C@H](C)O2)C1)C(=O)c1ccccc1C3=O [Idarubicin]
inhibition at 5 µM (recIAV WSN-NanoLuc [3]): 97 ± 1% | CC50 (PrestoBlue cell viability) (BEAS-2B cells): tox^d

CCOC(=O)C1=C(C)NC(C)=C(C(=O)OC)C1c1cccc([N+](=O)[O-])c1 (centres unmarked) [Nitrendipine]
CC50 (in vitro): > 10 µM | EC50 IAV WSN-nanoLuc (recIAV WSN-NanoLuc [1]): inactive^e | EC50 RSV A2-L19FD489E-fireSMASh [2]: inactive^e

Cc1c2oc3c(C)ccc(C(=O)N[C@@H]4C(=O)N[C@H](C(C)C)C(=O)N5CCC[C@H]5C(=O)N(C)CC(=O)N(C)[C@@H](C(C)C)C(=O)O[C@@H]4C)c3nc-2c(C(=O)N[C@@H]2C(=O)N[C@H](C(C)C)C(=O)N3CCC[C@H]3C(=O)N(C)CC(=O)N(C)[C@@H](C(C)C)C(=O)O[C@@H]2C)c(N)c1=O [Actinomycin D] (I: T[dV]P[Sar][NMeV] / II: T[dV]P[Sar][NMeV]; ester I:1-I:C, II:1-II:C; linker I:N-II:N via Actinocin(9to1))
inhibition at 5 µM (recIAV WSN-NanoLuc [3]): 104 ± 1.5%

Oc1ccc(/C=C/c2ccc(/C=C/c3ccc(O)cc3)c(Br)c2)cc1 [K114]
EC50 IAV WSN-nanoLuc (recIAV WSN-NanoLuc [1]): inactive^e | CC50 (BEAS-2B cells): > 10 µM | EC50 RSV A2-L19FD489E-fireSMASh [2]: inactive^e

COc1cc2nc(N3CCCN(C)CC3)nc(NC3CCN(Cc4ccccc4)CC3)c2cc1OC [BIX 01294]
CC50 (in vitro): > 10 µM | EC50 IAV WSN-nanoLuc (recIAV WSN-NanoLuc [1]): inactive^e | EC50 RSV A2-L19FD489E-fireSMASh [2]: inactive^e

COc1cccc2c1C(=O)c1c(O)c3c(c(O)c1C2=O)C[C@@](O)(C(=O)CO)C[C@@H]3O[C@H]1C[C@H](N)[C@@H](O)[C@H](C)O1 [Epirubicin]
inhibition at 5 µM (recIAV WSN-NanoLuc [3]): 75 ± 3.1%

Cn1nnc2c(C(N)=O)ncn2c1=O [Temozolomide]
inhibition at 5 µM (recIAV WSN-NanoLuc [3]): 55 ± 3.2%

CCN(CC)CCOc1ccc(Nc2ncc3cc(-c4c(Cl)cccc4Cl)c(=O)n(C)c3n2)cc1 [PD-166285]
CC50 (PrestoBlue cell viability) (BEAS-2B cells): tox^d

Cn1c(=O)c(-c2c(Cl)cccc2Cl)cc2cnc(Nc3ccc(N4CCOCC4)cc3)nc21 [PD173952]
CC50 (PrestoBlue cell viability) (BEAS-2B cells): tox^d

CC1=C(/C=C/C(C)=C/C=C/C(C)=C/C(=O)Nc2ccc(O)cc2)C(C)(C)CCC1 [Fenretinide]
CC50 (in vitro): > 10 µM | EC50 (recRSV A2-L19F-renilla): 4.8 µM | EC50 IAV WSN-nanoLuc (recIAV WSN-NanoLuc [1]): inactive^e | effect on IAV reporter strain (recIAV WSN-NanoLuc [1]): unaffected | SI RSV [CC50/EC50] [2]: SIRSV >2.8 Dengue [62], HIV [61]

COC(=O)C[C@](O)(CCCC(C)(C)O)C(=O)O[C@@H]1C(OC)=C[C@]23CCCN2CCc2cc4c(cc2[C@H]13)OCO4 [Homoharringtonine]
inhibition at 5 µM (recIAV WSN-NanoLuc [3]): 90 ± 2.6%

NC(=O)c1ncn([C@@H]2O[C@H](CO)[C@@H](O)[C@H]2O)n1 [Ribavirin]
EC50 (recIAV WSN-NanoLuc [4]): 4.5 µM | CC50 (in vitro): > 10 µM | EC50 (recRSV A2-L19F-renilla): 2.9 µM | SI IAV [CC50/EC50] (recIAV WSN-NanoLuc [1]): SIIAV >2.2 SIRSV >3.9 broad spectrum [84] | SI RSV [CC50/EC50] [2]: SIIAV >2.2 SIRSV >3.9 broad spectrum [84]

C=C[C@@H]1C[C@]1(NC(=O)[C@@H]1C[C@@H](Oc2ncc(OC)c3ccc(Cl)cc23)CN1C(=O)[C@@H](NC(=O)OC(C)(C)C)C(C)(C)C)C(=O)NS(=O)(=O)C1CC1 [ASV, Asunaprevir]
effect on progeny virus titers [5]: no effect | reduction of firefly luciferase activity [6]: approximately 90%

Nc1nc2c(c(=O)[nH]1)C[C@@H](CCc1ccc(C(=O)N[C@@H](CCC(=O)O)C(=O)O)cc1)CN2 [Lometrexol]
CC50 (PrestoBlue cell viability) (BEAS-2B cells): tox^d

CC(=O)OC[C@H]1O[C@@H]([S-])[C@H](OC(C)=O)[C@@H](OC(C)=O)[C@@H]1OC(C)=O.CCP(CC)CC.[Au+] [Auranofin]
CC50 (PrestoBlue cell viability) (BEAS-2B cells): tox^d

CC[C@]1(O)C[C@H]2CN(CCc3c([nH]c4ccccc34)[C@@](C(=O)OC)(c3cc4c(cc3OC)N(C=O)[C@H]3[C@@](O)(C(=O)OC)[C@H](OC(C)=O)[C@]5(CC)C=CCN6CC[C@]43[C@@H]65)C2)C1 [Vincristine]
inhibition at 5 µM (recIAV WSN-NanoLuc [3]): 50 ± 2.9%

CC(=O)N[C@H]1[C@H]([C@H](O)[C@H](O)CO)OC(C(=O)O)=C[C@@H]1N=C(N)N [Zanamivir]
EC50 (recIAV WSN-NanoLuc [4]): 0.02 µM | CC50 (in vitro): > 10 µM | SI IAV [CC50/EC50] (recIAV WSN-NanoLuc [1]): SIIAV >500 IAV inhibitor [83] | EC50 RSV A2-L19FD489E-fireSMASh [2]: Inactive

Nc1nc2c(ncn2CCOCP(=O)(O)O)c(=O)[nH]1 [PMEG]
SI IAV [CC50/EC50] (recIAV WSN-NanoLuc [1]): SIIAV 50 SIRSV 100 HPV [67] | EC50 (recIAV WSN-NanoLuc [1]): 0.2 µM | CC50 (BEAS-2B cells): 10 µM | SI RSV [CC50/EC50] [2]: SIIAV 50 SIRSV 100 HPV [67] | potency against RSV relative to IAV [2]: approximately 2 fold | EC50 [2]: 0.1 µM

Nc1nc(N)c2nc(-c3ccccc3)c(N)nc2n1 [Triamterene]
CC50 (in vitro): > 10 µM | EC50 IAV WSN-nanoLuc (recIAV WSN-NanoLuc [1]): inactive^e | EC50 RSV A2-L19FD489E-fireSMASh [2]: inactive^e

CN(Cc1cnc2nc(N)nc(N)c2n1)c1ccc(C(=O)N[C@@H](CCC(=O)O)C(=O)O)cc1 [Methotrexate]
inhibition at 5 µM (recIAV WSN-NanoLuc [3]): 100 ± 0.6%

Nc1ccn([C@@H]2O[C@H](CO)[C@@H](O)C2(F)F)c(=O)n1 [Gemcitabine]
EC50 (recIAV WSN-NanoLuc [4]): 0.1 µM | CC50 (in vitro): > 10 µM | EC50 (recRSV A2-L19F-renilla): 0.05 µM | SI IAV [CC50/EC50] (recIAV WSN-NanoLuc [1]): SIIAV >100 SIRSV >111 HIV, IAV [49], [50] | SI RSV [CC50/EC50] [2]: SIIAV >100 SIRSV >111 HIV, IAV [49], [50]

c1cnc2c(c1)ccc1cccnc12 [Phenanthroline]
CC50 (in vitro): 2.4 µM

COc1cc([C@@H]2c3cc4c(cc3[C@@H](O[C@@H]3O[C@@H]5CO[C@@H](C)O[C@H]5[C@H](O)[C@H]3O)[C@H]3COC(=O)[C@H]23)OCO4)cc(OC)c1O [Etoposide]
inhibition at 5 µM (recIAV WSN-NanoLuc [3]): 56 ± 5.6%

CCCCCCCCCCCCCCCCCCOCC(COP(=O)([O-])OCC[N+](C)(C)C)OC (centres unmarked) [ET-18-OCH3]
EC50 IAV WSN-nanoLuc (recIAV WSN-NanoLuc [1]): inactive^e | CC50 (BEAS-2B cells): > 10 µM | EC50 RSV A2-L19FD489E-fireSMASh [2]: inactive^e
